Values quoted from earlier work in article PMC9231011, “Irreversible Antagonists for the Adenosine A2B Receptor” (Molecules, 2022).

Columns and labels:
[1] = target: T1, human A1AR (Homo sapiens, UniProt P30542); design: method as in PMID 19569717; conditions: read-out: A1AR vs. Radioligand [3H]CCPA Ki; cited from earlier work
T1 construct: purchased Perkin Elmer ES-010-M400UA
T1 sequence (P30542 1-326): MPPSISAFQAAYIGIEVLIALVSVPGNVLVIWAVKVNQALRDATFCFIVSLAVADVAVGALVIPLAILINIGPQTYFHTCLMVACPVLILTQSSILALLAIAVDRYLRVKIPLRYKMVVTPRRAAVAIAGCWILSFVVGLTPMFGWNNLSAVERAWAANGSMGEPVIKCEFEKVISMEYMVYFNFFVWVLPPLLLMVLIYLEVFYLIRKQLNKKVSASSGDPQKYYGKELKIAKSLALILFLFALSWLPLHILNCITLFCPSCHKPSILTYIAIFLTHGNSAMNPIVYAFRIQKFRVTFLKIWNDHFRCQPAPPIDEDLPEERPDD

[2] = target: T2, human A3AR (Homo sapiens, UniProt P0DMS8); design: method as in PMID 19569717; conditions: read-out: A3AR vs. Radioligand [3H]PSB-11 Ki; cited from earlier work
T2 construct: expressed in transfected cells; host or cells: FreeStyle CHO-S cells, pcDNA3.1(+), transient
T2 sequence (P0DMS8 1-318): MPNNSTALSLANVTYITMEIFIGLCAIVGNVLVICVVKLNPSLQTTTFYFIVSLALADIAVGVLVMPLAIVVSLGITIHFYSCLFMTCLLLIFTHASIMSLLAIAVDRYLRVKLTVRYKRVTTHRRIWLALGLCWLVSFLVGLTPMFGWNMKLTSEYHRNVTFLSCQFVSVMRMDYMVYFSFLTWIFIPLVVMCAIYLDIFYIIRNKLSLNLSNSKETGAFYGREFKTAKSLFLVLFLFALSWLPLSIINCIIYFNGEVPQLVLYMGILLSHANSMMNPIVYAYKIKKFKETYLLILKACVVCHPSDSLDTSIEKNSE

**Q.** Which Ki [1] does the source give for `CCCn1c(=O)[nH]c2nc(-c3ccc(S(=O)(=O)O)cc3)[nH]c2c1=O` [PSB-1115, 1-propyl-8-(p-sulfophenyl)xanthine, reference compound] here?
**A.** Its Ki is over 10 µM.

**Q.** And the Ki [2]?
**A.** The Ki was over 10 µM.
